From patent US20170320939A1, “COLL2-1 PEPTIDE AND ITS NITRATED FORM AS THERAPEUTIC TARGETS FOR OSTEOARTHRITIS TREATMENT” (Université de Liège, priority 2014, published 2017)
“Also recorded” adds a separate entry of the source.

Key:
[1] = system: OA synovial fibroblast cells; test: NO production in OA synovial fibroblast cells; type: cell-based, human; conditions: Coll2-1 (0.45 and 4.5 nmol) or Coll2-1NO2 (4 and 40 pmol), 24 hours
Experimental: 1.1 Patients. Synovial tissue samples were obtained from 10 patients (8 women, 2 man; mean age 70 +/−6 years) with osteoarthritis (OA) of the knee at the time of total knee joint replacement surgery. All the subjects provided their informed consent.
1.2 Isolation and culture of synovial cells. Synovium biopsies were digested is with collagenase from Clostridium histolyticum, Type IA (1 mg/ml) (Sigma-Aldrich, Saint-Louis, USA) and 0.25% trypsin (Sigma Aldrich, Saint Louis, USA) with 0.68 mM EDTA in Tris buffer 0.1M, pH 7.4 in complete medium (CM) (DMEM (Dulbecco's Modified Eagle's Medium) Low Glucose supplemented with 10 mM HEPES, 100 U/ml penicillin, 100 μg/ml streptomycin, 2 mM glutamine and 10% fetal calf serum (Lonza, Verviers, Belgium)) for 1 hour at 37° C. The cells suspensions were passed through a 70-μm filter to remove any undigested tissue. The filtered cells suspensions were then collected by centrifugation at 800 g and were cultured in culture flasks. After 24 hours, medium was changed to eliminate non adherent cells. Synovial fibroblasts cells (SFC) were used after three passages. […]
1.7 NO production. Nitric oxide production was evaluated using a DAF2-DA fluorescent probe (Molecular Probes, Leiden, The Netherlands). […] The fluorescence intensity was measured every hour for 6 hours. […] The numbers of adherent cells were measured by cristal violet assay.

[2] = system: VEGF; test: VEGF mRNA expression by Real Time PCR in OA synovial fibroblast cells; type: cell-based, human; conditions: increasing concentrations: Coll2-1 (0.45 and 4.5 nmol) or Coll2-1NO2 (4 and 40 pmol), 24 hours
Experimental: (§1) 1.3 Treatment of synovial fibroblast cells. Cells were seeded into a six-well plate at the density of 2×10^5 cells/well in 2 ml of CM. When the cells reached confluence, the CM was replaced with 1% serum medium for 24 h to keep the cells quiescent. Cells were incubated for 24 hours with or without peptides Coll2-1 (^108HRGYPGLDG^116; 0.45 and 4.5 nmol) or Coll2-1NO2 (^108HRGYPGLDG-NO2^116; 4 and 40 pmol) at a range of concentrations found in the blood of osteoarthritic patients.
(§2) 1.4 RNA extraction and Real Time Reverse Transcriptase-Polymerase Chain Reaction (RT PCR). Total RNA were extracted using the RNeasy Mini Kit (Qiagen, Netherlands) and were reverse transcribed with SuperScript III Reverse Transcriptase (Invitrogen, Belgium) according to the manufacturer's instructions. The cDNAs were quantified by real-time quantitative PCR using the Rotor Gene instrument (Qiagen, Venlo, Netherlands) and the SYBR Premix Ex Taq kit (Takara, Verviers, Belgium). The level of gene expression was determined by interpolation with a standard curve. To standardize mRNA levels, HPRT, a house keeping gene, was amplified as an internal control. […]

[3] = system: IL-8; test: IL-8 mRNA expression by Real Time PCR in OA synovial fibroblast cells; type: cell-based, human; conditions: 24 hours
Experimental: as §1
1.4 RNA extraction and Real Time Reverse Transcriptase-Polymerase Chain Reaction (RT PCR). Total RNA were extracted using the RNeasy Mini Kit (Qiagen, Netherlands) and were reverse transcribed with SuperScript III Reverse Transcriptase (Invitrogen, Belgium) according to the manufacturer's instructions. The cDNAs were quantified by real-time quantitative PCR using the Rotor Gene instrument (Qiagen, Venlo, Netherlands) and the SYBR Premix Ex Taq kit (Takara, Verviers, Belgium). The level of gene expression was determined by interpolation with a standard curve. To standardize mRNA levels, HPRT, a house keeping gene, was amplified as an internal control. The oligonucleotide primers sequences were as follow: HPRT forward, 5′-[…]-3′ (SEQ ID NO: 2); HPRT reverse, 5′-TGCCTGACCAAGGAAAGC-3′ (SEQ ID NO: 3); TSP-1 forward, 5′-CAGACCGCATTGGAGATAC-3′ (SEQ ID NO: 4); TSP-1 reverse, 5′-[…]-3′ (SEQ ID NO: 5); VEGF forward, 5′-TGCCTTGCTGCTCTAC-3′ (SEQ ID NO: 6); VEGF reverse, 5′-CACACAGGATGGCTTGAA-3′ (SEQ ID NO: 7); IL-6 forward, 5′-AAACAAATTCGGTACATCCTCG-3′ (SEQ ID NO: 8); IL-6 reverse, 5′-CCA GGC AAG TCT CCT CAT-3′ (SEQ ID NO: 9); IL-8 forward, 5′-GGAACCATCTCACTGTGTGTAA-3′ (SEQ ID NO: 10); IL-8 reverse, 5′-TGGAAAGGTTTGGAGTATGTCT-3′ (SEQ ID NO: 11).

[4] = system: IL-6; test: IL-6 mRNA expression by Real Time PCR in OA synovial fibroblast cells; type: cell-based, human; conditions: increasing concentrations of peptide, 24 hours
Experimental: as §1, §2

[5] = system: NF-κB; test: NF-κB activation, Western blotting of phospho-p65 and phospho-IκBα; type: cell-based; conditions: in the presence of Coll2-1
Experimental: Western blotting. Cells were collected at 4° C. and lysed on ice in 50 μl of buffer (25 mM Hepes, 150 mM NaCl, 0.5% Triton X-100, 10% glycerol, and 1 mM dithiothreitol) containing protease and phosphatase inhibitors. After incubation at 4° C. for 30 minutes, lysates were then centrifugated at 14,000 g for 30 minutes at 4° C. to remove insoluble debris. Protein concentrations were determined using BCA assay. Total protein extracts (10 μg) were fractioned by electrophoresis on a polyacrylamide gel (10%) and transferred onto a PVDF membrane. Membrane were blocked for 1 h in TBS-Tween containing 2% bovine serum albumin (phosphor-NF-κB p65 and phospho-IκBα). Membranes were then incubated overnight at 4° C. with primary antibodies. Anti-rabbit phospho-NF-κB p65 (1:1000 dilution), anti-rabbit phospho-IκBα (1:1000 dilution) were used. Horse-radish peroxidase (HRP)-linked anti-rabbit IgG antibody (1:2000 dilution) was used as secondary antibody.

## HRGYPGLDG [Coll2-1]
[1]
  production of NO (nitric oxide): decreased significantly; also recorded: decrease
[2]
  VEGF expression: tended to increase
[3]; Coll2-1 at 0.45 nmol
  IL8 gene expression: dose-dependently increased
[3]; Coll2-1 at 4.5 nmol
  IL8 gene expression: dose-dependently increased
[3]; increasing concentrations: Coll2-1 (0.45 and 4.5 nmol) or Coll2-1NO2 (4 and 40 pmol)
  IL-8 expression: increased
[4]
  IL-6 expression: increased
[5]
  IκBα degradation: induced
  phosphorylation of p65 NF-κB subunit: observed the phosphorylation
